“And” between values parts separate entries of the source, which are not always exact repeats. Equal values may be shown once. After the bases stand the sugars from the 5' end (letter, count) and the backbone: PS all phosphorothioate, else s phosphorothioate and o phosphodiester by linkage. Methylation of C is not given here. e = 2'-O-(2-methoxyethyl) (MOE); d = 2'-deoxy (DNA)
Molecular target: DGAT2
Settings: ASO

Sequence | target mRNA inhibition (HepG2, 2.5 µM) | target mRNA inhibition (HepG2, 10 µM) | target mRNA inhibition (HepG2, 0.12 µM) | target mRNA inhibition (HepG2, 20 µM)
GCCACAGGGCCCTTTCCAGA (sugars e5 d10 e5, PS) | 68% | 92% | – | –
GCCACCTGCTTTGGAACTAA (sugars e5 d10 e5, PS) | – | – | 41% | –
GCCACTCAGCCTTGGAGCCA (sugars e5 d10 e5, PS) | 90% and 83% | 86% and 85% | – | –
GCCAGGCCCCTTCTGAAGAG (sugars e5 d10 e5, PS) | – | – | 36% | –
GCCAGGTAAGGCCGTATGCC (sugars e2 d13 e5, PS) | – | – | 66% | –
GCCATCATACTAGACTATGC (sugars e5 d10 e5, PS) | 88% and 81% | 91% and 90% | – | –
GCCCAGTTTCGGACCCACTG (sugars e5 d10 e5, PS) | 37% | 46% | – | 65%
GCCTGGACAAGTCCTGCCCA (sugars e5 d10 e5, PS) | – | – | 70% and 86% | 81% and 88%
GCGACAGCCCTGTGCCAGCC (sugars e5 d10 e5, PS) | 72% | 99% | – | –
GCGATTCACTGAGGACC (sugars e3 d10 e4, PS) | – | 68% and 86% | – | –
GCGCAGGACCCCGGAGTAGG (sugars e3 d14 e3, PS) | – | – | 71% | –
GCGGCAGAGCCAGGACTGAA (sugars e5 d10 e5, PS) | – | – | 35% | –
GCTACTGGCATTGCTCCTCC (sugars e5 d10 e5, PS) | 42% | 81% | – | –
GCTAGAGGCTGAGTTCTGCT (sugars e5 d10 e5, PS) | 85% and 87% | 90% and 92% | – | –
GCTATTCATTTTTCTGAGCC (sugars e5 d10 e5, PS) | – | – | 47% | –
GCTCAGAGACTCAGCCGCAC (sugars e3 d14 e3, PS) | – | – | 69% | –
GCTCAGATCACTCTGCACAG (sugars e5 d10 e5, PS) | 77% and 81% and 82% | 90% and 86% and 89% | – | –
GCTGCATCCATGTCATCAGC (sugars e2 d16 e2, PS) | – | – | 53% | –
GCTGCATCCATGTCATCAGC (sugars e5 d10 e5, PS) | – | – | 43% | –
GCTGTGATGACTTCCCAGGG (sugars e5 d10 e5, PS) | 75% | 86% | – | –
GCTTTAATCCAGGATTGTCA (sugars e5 d10 e5, PS) | 73% and 76% and 82% | 91% and 88% and 93% | – | –

Sequence | target mRNA inhibition (HepG2, 2.5 µM) | target mRNA inhibition (HepG2, 10 µM) | target mRNA inhibition (HepG2, 0.12 µM) | target mRNA inhibition (HepG2, 20 µM)
GGAAAACTTAGGCATGCTTC (sugars e5 d10 e5, PS) | 64% and 72% | 90% and 87% | – | –
GGAAACTTTCCCACAGTCAG (sugars e5 d10 e5, PS) | 69% | 94% | – | –
GGAAAGGCACAGGCTTTGGG (sugars e5 d10 e5, PS) | 57% and 66% | 92% and 97% | – | –
GGACAGCTGTGATGACTTCC (sugars e5 d10 e5, PS) | 55% | 76% | – | –
GGACCCACTGGAGCACT (sugars e3 d10 e4, PS) | 57% | 93% | – | –
GGACCCACTGGAGCACTGAG (sugars e2 d13 e5, PS) | 24% | 28% | 86% | 67%
GGACCCACTGGAGCACTGAG (sugars e3 d14 e3, PS) | 29% | 42% | 82% | 71%
GGAGCTCAGAGACTCAGCCG (sugars e5 d10 e5, PS) | – | – | 73% | –
GGAGGAGTTCTCGAATATCC (sugars e5 d10 e5, PS) | 84% | 74% | – | –
GGATGGTGATGGGCTCTCCC (sugars e5 d10 e5, PS) | – | – | 67% | –
GGCAGATAACCACAGCGATA (sugars e5 d10 e5, PS) | 75% | 84% | – | –
GGCCAAGGACAGAGGTTCAA (sugars e5 d10 e5, PS) | 60% | 87% | – | –
GGCTCCGGTCAGCCTCGGCC (sugars e5 d10 e5, PS) | – | – | 0% | –
GGCTGAGTCTGTGCTGCATC (sugars e5 d10 e5, PS) | 85% and 65% | 81% | – | –
GGGCAAAAAGTGAATCATCT (sugars e5 d10 e5, PS) | 39% | 72% | – | –
GGGTCAAGGTCACTCAGCCA (sugars e5 d10 e5, PS) | – | – | 33% | –
GGGTCATTTTGGAGACCACA (sugars e5 d10 e5, PS) | 59% | 83% | – | –
GGGTTATTGCAACCACTAGG (sugars e5 d10 e5, PS) | 74% | 80% | – | –
GGTAAGGCCGTATGCCTGGG (sugars e2 d13 e5, PS) | – | – | 53% | –
GGTCTTTTTGGCTGCCCTGC (sugars e5 d10 e5, PS) | 81% and 84% | 87% and 90% | – | –

Reference: the OligoGym collection
